Results reported in the NIST ThermoML archive (doi:10.1021/je300610y).

Tests used:
[1] = Crystal; for vapor or sublimation pressure: Transpiration method; for Normal melting temperature: DTA
[2] = Molar enthalpy of transition or fusion; details: Crystal; DSC

CC(C)c1ccc(NC2=NCCC3(CCCCC3)S2)cc1
[1]
Details | vapor or sublimation pressure [kPa]
365.15 K | 1.98e-05
366.15 K | 2.34e-05
369.15 K | 3.21e-05
371.15 K | 3.7e-05
373.15 K | 4.74e-05
375.15 K | 5.94e-05
376.15 K | 7.14e-05
379.15 K | 8.3e-05
381.15 K | 0.0001048
383.15 K | 0.0001249
385.15 K | 0.0001533
386.15 K | 0.0001933
388.15 K | 0.0001988
390.15 K | 0.0002603
393.15 K | 0.0003364

Details | Molar enthalpy of transition or fusion [kcal/mol] | Normal melting temperature [°C]
[1] | – | 139.6
[2] | 6.98 | –

Cc1ccc(NC2=NCCC3(CCCCC3)S2)cc1Cl
[1]
Details | vapor or sublimation pressure [kPa]
385.15 K | 7.9e-06
386.15 K | 8.8e-06
387.15 K | 1.13e-05
388.15 K | 1.22e-05
389.15 K | 1.29e-05
391.15 K | 1.59e-05
393.15 K | 1.79e-05
395.15 K | 2.05e-05
396.15 K | 2.29e-05
397.15 K | 2.95e-05
399.15 K | 3.31e-05
401.15 K | 3.4e-05
402.15 K | 3.75e-05
404.15 K | 4.55e-05
405.7 K | 5.09e-05
406.4 K | 5.34e-05
407.3 K | 6.09e-05

Details | Molar enthalpy of transition or fusion [kcal/mol] | Normal melting temperature [°C]
[1] | – | 149.2
[2] | 7.93 | –

FC(F)(F)c1ccc(NC2=NCCC3(CCCCC3)S2)cc1
[1]
Details | vapor or sublimation pressure [kPa]
384.15 K | 4.95e-05
385.15 K | 5.32e-05
386.15 K | 5.53e-05
387.15 K | 6.2e-05
389.15 K | 7.35e-05
390.15 K | 8.5e-05
392.15 K | 9.41e-05
393.15 K | 0.0001076
394.15 K | 0.0001185
395.15 K | 0.0001376
397.15 K | 0.0001497
398.15 K | 0.0001884
399.15 K | 0.0002215
401.15 K | 0.0002241
402.15 K | 0.0002762
403.15 K | 0.0002858

Details | Molar enthalpy of transition or fusion [kcal/mol] | Normal melting temperature [°C]
[1] | – | 149.7
[2] | 7.86 | –

Brc1ccc(NC2=NCCC3(CCCCC3)S2)cc1 [N-(4-bromophenyl)-1-thia-3-azaspiro[5.5]undec-2-en-2-amine]
[1]
Details | vapor or sublimation pressure [kPa]
374.15 K | 5.7e-06
375.15 K | 7.6e-06
378.15 K | 1.05e-05
380.15 K | 1.35e-05
385.15 K | 1.92e-05
388.15 K | 3.2e-05
391.15 K | 4.17e-05
393.15 K | 5.5e-05
395.15 K | 6.74e-05
397.15 K | 7.99e-05
399.15 K | 9.5e-05
401.15 K | 0.0001235
403.15 K | 0.0001454
405.15 K | 0.0001813
406.15 K | 0.0002145
409.15 K | 0.000277
411.15 K | 0.0003482

Details | Molar enthalpy of transition or fusion [kcal/mol] | Normal melting temperature [°C]
[1] | – | 175.2
[2] | 10.6 | –

Clc1ccc(NC2=NCCC3(CCCCC3)S2)cc1 [N-(4-chlorophenyl)-1-thia-3-azaspiro[5.5]undec-2-en-2-amine]
[1]
Details | vapor or sublimation pressure [kPa]
370.15 K | 1.08e-05
372.15 K | 1.28e-05
373.15 K | 1.3e-05
376.15 K | 2e-05
377.15 K | 2.79e-05
380.15 K | 3.58e-05
383.15 K | 5.41e-05
384.15 K | 7.05e-05
387.15 K | 7.69e-05
389.15 K | 8.96e-05
391.15 K | 0.0001171
393.15 K | 0.0001487
395.15 K | 0.0001855
398.15 K | 0.0002176
400.15 K | 0.0002803
403.15 K | 0.0003898

Details | Molar enthalpy of transition or fusion [kcal/mol] | Normal melting temperature [°C]
[1] | – | 162.6
[2] | 10 | –

CCc1ccc(NC2=NCCC3(CCCCC3)S2)cc1 [N-(4-ethylphenyl)-1-thia-3-azaspiro[5.5]undec-2-en-2-amine]
[1]
Details | vapor or sublimation pressure [kPa]
366.15 K | 3.45e-05
367.15 K | 4.16e-05
370.15 K | 5.31e-05
372.15 K | 7.08e-05
374.15 K | 8.22e-05
376.15 K | 0.0001151
377.15 K | 0.0001434
380.15 K | 0.0001583
382.15 K | 0.0002134
384.15 K | 0.0002567
386.15 K | 0.000327
387.15 K | 0.0003632
390.15 K | 0.0004631
392.15 K | 0.000642
394.15 K | 0.0007981

Details | Molar enthalpy of transition or fusion [kcal/mol] | Normal melting temperature [°C]
[1] | – | 139.4
[2] | 10.2 | –

Cc1ccc(NC2=NCCC3(CCCCC3)S2)cc1 [N-(4-methylphenyl)-1-thia-3-azaspiro[5.5]undec-2-en-2-amine]
[1]
Details | vapor or sublimation pressure [kPa]
353.15 K | 9.4e-06
355.15 K | 1.29e-05
356.15 K | 1.58e-05
360.15 K | 2.24e-05
363.15 K | 3.02e-05
365.15 K | 3.66e-05
366.15 K | 4.54e-05
369.15 K | 6.73e-05
372.15 K | 9.76e-05
375.15 K | 0.0001314
376.15 K | 0.0001366
377.15 K | 0.0001547
378.15 K | 0.0001852
380.15 K | 0.0002336
384.15 K | 0.0003508

Details | Molar enthalpy of transition or fusion [kcal/mol] | Normal melting temperature [°C]
[1] | – | 128.1
[2] | 7.1 | –

c1ccc(NC2=NCCC3(CCCCC3)S2)cc1 [N-phenyl-1-thia-3-azaspiro[5.5]undec-2-en-2-amine]
[1]
Details | vapor or sublimation pressure [kPa]
342.15 K | 6.9e-06
343.15 K | 8.2e-06
345.15 K | 1.01e-05
347.15 K | 1.32e-05
349.15 K | 1.47e-05
350.15 K | 1.8e-05
352.15 K | 2.39e-05
355.15 K | 3.14e-05
357.15 K | 4.42e-05
360.15 K | 6.22e-05
361.15 K | 6.34e-05
362.15 K | 9.1e-05
365.15 K | 0.0001035
367.15 K | 0.0001298
368.15 K | 0.0001351
369.15 K | 0.0001541

Details | Molar enthalpy of transition or fusion [kcal/mol] | Normal melting temperature [°C]
[1] | – | 113.4
[2] | 5.16 | –
